What was measured:
human AT1 receptor = biological target: T1, human AT1 receptor (Homo sapiens, UniProt P30556); assay: AT1 radioligand binding assay (displacement of [Eu]AngII); conditions: membranes of CHO-K1 cells expressing cloned human AT1 receptor; values given as lower bounds; read-out: AT1 pKi (converted)
T1 construct: expressed in transfected cells; host or cells: CHO-K1
T1 sequence (P30556 1-359): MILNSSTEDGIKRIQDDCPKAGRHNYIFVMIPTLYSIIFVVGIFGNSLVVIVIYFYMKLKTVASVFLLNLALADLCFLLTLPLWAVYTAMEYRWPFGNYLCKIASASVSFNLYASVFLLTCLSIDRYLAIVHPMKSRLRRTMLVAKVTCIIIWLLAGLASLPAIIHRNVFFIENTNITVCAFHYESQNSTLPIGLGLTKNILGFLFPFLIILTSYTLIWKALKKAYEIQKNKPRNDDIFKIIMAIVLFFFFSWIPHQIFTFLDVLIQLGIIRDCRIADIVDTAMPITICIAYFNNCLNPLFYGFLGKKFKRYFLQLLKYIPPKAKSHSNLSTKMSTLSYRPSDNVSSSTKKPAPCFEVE
Method in brief: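 Membranes from CHO-K1 cells stably expressing cloned human AT1, 0.2 μg protein, in 50 mM Tris/HCl pH 7.5, 5 mM MgCl2, 0.025% BSA. Compounds displaced [Eu]AngII over 120 min in the dark at room temperature or 37° C; filter-bound TRF read. Nonspecific binding with 10 μM angiotensin II; IC50 converted to Ki via Cheng-Prusoff, reported as pKi.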

NEP enzyme = biological target: T2, NEP enzyme (Homo sapiens, UniProt P08473); assay: NEP enzyme inhibition assay (fluorogenic peptide substrate); assay type: biochemical; conditions: values given as lower bounds; * = prodrugs, may not exhibit NEP activity in an in vitro assay; read-out: NEP pIC50 (converted)
T2 construct: purchased R&D Systems, Minneapolis, Minn; 1182-ZN
Method in brief: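 Recombinant human NEP was run with Mca-BK2 (10 μM) at room temperature in Tris buffer with 1 μM Zn. Compounds (10 μM–20 pM, 12 points) were pre-equilibrated 10 min, then reacted 20 min and acid-stopped. Fluorescence ex 320/em 405 nm, one-site competition fit gives pIC50. Thiol compounds may be pre-treated with 400 μM TCEP.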

T2 sequence (P08473 52-750 limits assumed): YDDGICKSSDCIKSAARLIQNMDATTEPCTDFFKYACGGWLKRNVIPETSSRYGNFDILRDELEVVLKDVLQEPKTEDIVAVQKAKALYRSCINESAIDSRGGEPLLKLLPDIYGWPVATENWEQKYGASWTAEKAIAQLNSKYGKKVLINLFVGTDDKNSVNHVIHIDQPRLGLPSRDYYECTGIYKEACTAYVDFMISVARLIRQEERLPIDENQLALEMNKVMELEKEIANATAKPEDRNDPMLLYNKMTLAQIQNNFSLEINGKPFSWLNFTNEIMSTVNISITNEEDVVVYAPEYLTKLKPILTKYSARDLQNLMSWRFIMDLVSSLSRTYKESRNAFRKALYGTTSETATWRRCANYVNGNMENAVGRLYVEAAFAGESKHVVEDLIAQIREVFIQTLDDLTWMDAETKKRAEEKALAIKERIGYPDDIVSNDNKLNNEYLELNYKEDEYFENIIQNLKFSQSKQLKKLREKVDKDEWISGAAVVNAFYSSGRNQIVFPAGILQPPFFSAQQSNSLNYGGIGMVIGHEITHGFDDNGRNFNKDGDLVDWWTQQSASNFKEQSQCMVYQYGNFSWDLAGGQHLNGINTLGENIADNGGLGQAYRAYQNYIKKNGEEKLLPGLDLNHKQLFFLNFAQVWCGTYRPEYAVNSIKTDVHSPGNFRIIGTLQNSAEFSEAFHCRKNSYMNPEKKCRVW

SMILES | Ki (human AT1 receptor) | IC50 (NEP enzyme)
CCOc1cc(C(=O)N[C@@H](CS)Cc2ccccc2)nn1Cc1ccc(-c2ccccc2-c2nnn[nH]2)cc1 [Example 3-4, 5-Ethoxy-1-[2′-(1H-tetrazol-5-yl)biphenyl-4-ylmethyl]-1H-pyrazole-3-carboxylic acid ((R)-1-benzyl-2-mercaptoethyl)amide] | ≤ 10 nM | ≤ 100 nM
CCCc1cc(C(=O)N[C@@H](CC(=O)O)Cc2ccccc2Br)nn1Cc1ccc(-c2ccccc2-c2nnn[nH]2)cc1 [Example 3-13, (R)-4-(2-Bromophenyl)-3-({5-propyl-1-[2′-(1H-tetrazol-5-yl)-biphenyl-4-ylmethyl]-1H-pyrazole-3-carbonyl}amino)butyric acid] | ≤ 10 nM | ≤ 1000 nM
CCc1cc(C(=O)N[C@H](Cc2ccccc2)[C@@H](O)C(=O)O)nn1Cc1ccc(-c2ccccc2-c2nnn[nH]2)cc1F [Example 3-37, (2R,3R)-3-({5-Ethyl-1-[3-fluoro-2′-(1H-tetrazol-5-yl)-biphenyl-4-ylmethyl]-1H-pyrazole-3-carbonyl}amino)-2-hydroxy-4-phenylbutyric acid] | ≤ 100 nM | ≤ 10000 nM
CCCc1cc(C(=O)N[C@H](Cc2ccccc2)[C@@H](O)C(=O)O)nn1Cc1ccc(-c2ccccc2S(=O)(=O)NC(=O)N2CCCC2)cc1 [Example 7-21, (2R,3R)-2-Hydroxy-4-phenyl-3-[(5-propyl-1-{2′-[(pyrrolidine-1-carbonyl)sulfamoyl]biphenyl-4-ylmethyl}-1H-pyrazole-3-carbonyl)amino]butyric acid] | ≤ 100 nM | ≤ 100 nM
CCCc1cc(C(=O)NC(CC(=O)NO)CC(C)C)nn1Cc1ccc(-c2ccccc2S(=O)(=O)NC(C)=O)c(F)c1 (stereo not shown) [Example 6-21, 1-(2′-Acetylsulfamoyl-2-fluorobiphenyl-4-ylmethyl)-5-propyl-1H-pyrazole-3-carboxylic acid (1-hydroxycarbamoylmethyl-3-methylbutyl)amide] | ≤ 10 nM | ≤ 100 nM
CCOc1cc(C(=O)N[C@@H](CS)Cc2ccccc2)nn1Cc1ccc(-c2ccccc2-c2nnn[nH]2)cc1F [Example 3-1, 5-Ethoxy-1-[3-fluoro-2′-(1H-tetrazol-5-yl)biphenyl-4-ylmethyl]-1H-pyrazole-3-carboxylic acid ((R)-1-benzyl-2-mercaptoethyl)amide] | ≤ 10 nM | ≤ 100 nM
CCCc1cc(C(=O)N[C@H](Cc2ccccc2)[C@@H](O)C(=O)O)nn1Cc1c(F)cc(-c2ccccc2-c2nnn[nH]2)cc1F [Example 3-26, (2R,3R)-3-(1-((3,5-difluoro-2′-(1H-tetrazol-5-yl)biphenyl-4-yl)methyl)-5-propyl-1H-pyrazole-3-carboxamido)-2-hydroxy-4-phenylbutanoic acid] | ≤ 100 nM | ≤ 100 nM
CCCc1cc(C(=O)N[C@@H](CC(=O)OC)Cc2ccccc2)nn1Cc1ccc(-c2ccccc2-c2nnn[nH]2)cc1 [Example 3-27, (R)-4-Phenyl-3-({5-propyl-1-[2′-(1H-tetrazol-5-yl)-biphenyl-4-ylmethyl]-1H-pyrazole-3-carbonyl}amino)butyric acid methyl ester] | ≤ 10 nM | ≤ 10000 nM
CCOc1cc(C(=O)N[C@H](Cc2ccccc2)[C@@H](O)C(=O)O)nn1Cc1ccc(-c2ccccc2-c2nnn[nH]2)cc1 [Example 3-9, (2R,3R)-3-({5-Ethoxy-1-[2′-(1H-tetrazol-5-yl)biphenyl-4-ylmethyl]-1H-pyrazole-3-carbonyl}amino)-2-hydroxy-4-phenylbutyric acid] | ≤ 100 nM | ≤ 1000 nM
CCCc1cc(C(=O)N[C@H](Cc2ccccc2)[C@@H](O)C(=O)O)nn1Cc1ccc(-c2ccccc2S(=O)(=O)NC(=O)[C@@H](C)O)cc1 [Example 7-16, (2R,3R)-2-Hydroxy-3-({1-[2′-((R)-2-hydroxypropionylsulfamoyl)biphenyl-4-ylmethyl]-5-propyl-1H-pyrazole-3-carbonyl}amino)-4-phenylbutyric acid] | ≤ 10 nM | ≤ 100 nM
CCCc1cc(C(=O)N[C@H](Cc2ccccc2)[C@@H](O)C(=O)O)nn1Cc1ccc(-c2ccccc2S(=O)(=O)NC(=O)OCC)cc1 [Example 7-7, (2R,3R)-3-(1-((2′-(N-(ethoxycarbonyl)sulfamoyl)biphenyl-4-yl)methyl)-5-propyl-1H-pyrazole-3-carboxamido)-2-hydroxy-4-phenylbutanoic acid] | ≤ 10 nM | ≤ 1000 nM
CCCc1cc(C(=O)N[C@@H](CC(=O)O)Cc2ccccc2C)nn1Cc1ccc(-c2ccccc2-c2nnn[nH]2)cc1 [Example 3-35, (R)-3-({5-Propyl-1-[2′-(1H-tetrazol-5-yl)biphenyl-4-ylmethyl]-1H-pyrazole-3-carbonyl}amino)-4-o-tolylbutyric acid] | ≤ 10 nM | ≤ 10000 nM
CCCc1cc(C(=O)N[C@@H](CS)Cc2ccccc2)nn1Cc1ccc(-c2ccccc2-c2nnn[nH]2)c(F)c1 [Example 3-11, 1-((2-Fluoro-2′-(1H-tetrazol-5-yl)biphenyl-4-yl)methyl)-N-((R)-1-mercapto-3-phenylpropan-2-yl)-5-propyl-1H-pyrazole-3-carboxamide] | ≤ 10 nM | ≤ 100 nM
CCCc1cc(C(=O)N[C@@H](CC(=O)OC)Cc2ccccc2C)nn1Cc1ccc(-c2ccccc2-c2nnn[nH]2)cc1 [Example 3-29, (R)-3-({5-Propyl-1-[2′-(1H-tetrazol-5-yl)-biphenyl-4-ylmethyl]-1H-pyrazole-3-carbonyl}amino)-4-o-tolyl-butyric acid methyl ester] | ≤ 10 nM | ≤ 10000 nM
CCCc1cc(C(=O)N[C@H](Cc2ccccc2)[C@@H](O)C(=O)NO)nn1Cc1ccc(-c2ccccc2-c2nnn[nH]2)cc1 [Example 3-17, 1-((2′-(1H-tetrazol-5-yl)biphenyl-4-yl)methyl)-N-((2R,3R)-3-hydroxy-4-(hydroxyamino)-4-oxo-1-phenylbutan-2-yl)-5-propyl-1H-pyrazole-3-carboxamide] | ≤ 10 nM | ≤ 100 nM
CCCc1cc(C(=O)N[C@@H](CC(=O)O)Cc2ccccc2)nn1Cc1ccc(-c2ccccc2S(=O)(=O)NC(C)=O)cc1 [Example 6-28, (R)-3-{[1-(2′-Acetylsulfamoylbiphenyl-4-ylmethyl)-5-propyl-1H-pyrazole-3-carbonyl]amino}-4-phenylbutyric acid] | ≤ 10 nM | ≤ 10000 nM
CCCc1cc(C(=O)N[C@H](Cc2ccccc2)[C@@H](O)C(=O)O)nn1Cc1ccc(-c2ccccc2S(=O)(=O)NC(=O)C(C)(C)O)cc1 [Example 7-14, (2R,3R)-2-Hydroxy-3-({1-[2′-(2-hydroxy-2-methylpropionylsulfamoyl)biphenyl-4-ylmethyl]-5-propyl-1H-pyrazole-3-carbonyl}amino)-4-phenylbutyric acid] | ≤ 10 nM | ≤ 100 nM

Next, values leading:

Ki (human AT1 receptor) | IC50 (NEP enzyme) | SMILES
≤ 100 nM | ≤ 1000 nM | CCCc1cc(C(=O)N[C@@H](CC(=O)O)Cc2ccccc2Cl)nn1Cc1ccc(-c2ccccc2-c2nnn[nH]2)cn1 [Example 15-2, (R)-4-(2-Chlorophenyl)-3-[(5-propyl-1-{5-[2-(1H-tetrazol-5-yl)phenyl]pyridin-2-ylmethyl}-1H-pyrazole-3-carbonyl)amino]butyric acid]
≤ 100 nM | ≤ 100 nM | CCCc1cc(C(=O)N[C@@H](CS)CC(C)C)nn1Cc1ccc(-c2ccccc2C(=O)O)cc1F [Example 9-1, 3′-Fluoro-4′-[3-((R)-1-mercaptomethyl-3-methylbutylcarbamoyl)-5-propylpyrazol-1-ylmethyl]biphenyl-2-carboxylic acid]
≤ 10 nM | ≤ 100 nM | CCOc1cc(C(=O)N[C@H](Cc2ccccc2)[C@@H](O)C(=O)O)nn1Cc1ccc(-c2ccccc2-n2nn[nH]c2=O)cc1 [Example 16-7, (2R,3R)-3-({5-Ethoxy-1-[2′-(5-oxo-4,5-dihydrotetrazol-1-yl)-biphenyl-4-ylmethyl]-1H-pyrazole-3-carbonyl}amino)-2-hydroxy-4-phenylbutyric acid]
≤ 10 nM | ≤ 100 nM | CCCc1cc(C(=O)N[C@@H](CC(=O)O)Cc2cccc(F)c2)nn1Cc1ccc(-c2ccccc2-c2nnn[nH]2)nc1 [Example 14-12, (R)-4-(3-Fluorophenyl)-3-[(5-propyl-1-{6-[2-(1H-tetrazol-5-yl)phenyl]pyridin-3-ylmethyl}-1H-pyrazole-3-carbonyl)amino]butyric acid]
≤ 100 nM | ≤ 100 nM | CCCc1cc(C(=O)N[C@H](Cc2ccccc2)[C@@H](O)C(=O)O)nn1Cc1ccc(-c2ccccc2C(=O)O)c(F)c1F [Example 9-7, 4′-[3-((1R,2R)-1-Benzyl-2-carboxy-2-hydroxyethylcarbamoyl)-5-propylpyrazol-1-ylmethyl]-2′,3′-difluorobiphenyl-2-carboxylic acid]
≤ 100 nM | ≤ 100 nM | CCCCc1cc(C(=O)N[C@@H](CS)Cc2ccccc2)nn1Cc1ccc(-c2ccccc2C(=O)O)cc1F [Example 9-4, 4′-[3-((R)-1-Benzyl-2-mercaptoethylcarbamoyl)-5-butylpyrazol-1-ylmethyl]-3′-fluorobiphenyl-2-carboxylic acid]

— US8350027B2, “Dual-acting pyrazole antihypertensive agents” (Theravance, Inc., priority 2009, dated 2013)
